{"source": "patent US4132778A", "about": "“Antibiotic A-32887” (Eli Lilly and Company, priority 1977, dated 1979)", "key": {"rumen flora": {"test_system": "rumen flora", "experiment": "Rumen volatile-fatty-acid (VFA) production test in flasks (Table XIV)", "details": "1 mcg/ml"}, "Propionibacterium acnes": {"test_system": "Propionibacterium acnes", "experiment": "Standard agar-dilution assay, anaerobic bacteria, Table IX", "format": "cell-based", "details": "24-hour incubation"}, "ATPase": {"test_system": "ATPase", "experiment": "In vitro ATPase inhibition test using NaCl", "format": "biochemical", "text": "In yet another aspect, the A-32887 compounds are active as inhibitors of the enzyme ATPase. ATPase, an alkali-metal-sensitive enzyme found in cell membranes, is involved in the energy necessary for active transport. \"Active transport\" refers to the energy-requiring series of operations whereby intracellular and extracellular fluids maintain their compositions. Inhibitors of ATPase reduce the energy required for active transport."}, "Fusobacterium symbiosum": {"test_system": "Fusobacterium symbiosum", "experiment": "Standard agar-dilution assay, anaerobic bacteria, Table IX", "format": "cell-based", "details": "24-hour incubation"}, "[1]": {"test_system": "Staphylococcus aureus 3130 (Methicillin-resistant)", "experiment": "Conventional disc-diffusion method, Table VII", "format": "cell-based", "text": "The activity of A-32887 (Na-K salt) against illustrative bacteria, as measured by the conventional disc-diffusion method, is summarized in Table VI.\n**Methicillin-resistant"}, "guinea pig left atria": {"test_system": "guinea pig left atria", "experiment": "Cardiac contractility in guinea pig left atria", "details": "10^-5 molar", "text": "The A-32887 compounds are potential cardiotonic agents. In tests using guinea pig left atria, A-32887 (Na-K salt) increased cardiac contractility. Response to this test is expressed as a percentage of the maximal force that could be elicited by a challenge dose of norepinephrine. A-32887 (Na-K salt), at a 10^-5 molar concentration, increased cardiac contractility by 28.0 ± 7.1 percent."}, "acute swine dysentery": {"test_system": "acute swine dysentery", "experiment": "Swine dysentery test in infected pigs (Table XVII)", "format": "in vivo", "details": "100 g/ton in feed", "procedure": "In another aspect the A-32887 compounds are useful in the prevention and control of swine dysentery. A preferred method of administration to swine is by incorporation of an appropriate amount of an A-32887 compound into the feed ration. […] In this test, groups of four pigs were challenged orally with 5.0 ml of a colon-content/tissue suspension prepared from pigs suffering from acute swine dysentery. Treated pigs were challenged 24 hours after initiating feed treatment. The test was carried out over a period of 26 days, observing pigs daily, and weighing them weekly and on day 26.\n*Fecal material for each group was rated daily with 0= normal, 1= slight\nblood or mucus, 2= moderate blood or mucus, 3= marked blood or mucus.\nIndex is the total score per treatment for 25 days."}, "[2]": {"test_system": "Bacteriodes fragilis ssp thetaiotaomicron", "experiment": "Standard agar-dilution assay, anaerobic bacteria, Table IX", "format": "cell-based", "details": "24-hour incubation"}, "E. tenella AND E. maxima": {"test_system": "E. tenella AND E. maxima", "experiment": "Anticoccidial feeding test in chicks, E. tenella and E. maxima (Table XI)", "format": "in vivo", "parameters": "Average Lesion Score, Total Intestinal / Average Lesion Score, Cecal: scale not given here; Mortality: unit not given here", "details": "for Mortality: due to coccidiosis", "procedure": "^1 70,000 oocysts/bird of each of E. tenella and E. maxima\n^2 Infected 48 hours postmedication; terminated seven days\n^3 Four replicates; five birds/replicate"}}}
{"molecule": "CO[C@H]1CC[C@H](OC2[C@@H](C)[C@@](C)(O)O[C@H]([C@H]3CC[C@H]([C@@H]4CC[C@H]([C@@]5(C)O[C@]6(O[C@H](C[C@@H]7O[C@](O)([C@@H](O)C(=O)O)[C@@H](C)[C@H](OC)[C@@]7(C)OC)C[C@@H](OC)[C@H]6C)[C@H](C)[C@H]5OC)O4)O3)[C@H]2C)O[C@@H]1C.[K+].[Na+]", "note": "(some centres unmarked) [A-32887 (Na-K salt)]", "values": [{"measurement": "Ratio of Treated to Control, Molar % Acetate", "setting": "rumen flora", "result": 0.5744}, {"measurement": "Ratio of Treated to Control, Molar % Butyrate", "setting": "rumen flora", "result": 1.1116}, {"measurement": "Ratio of Treated to Control, Total VFA mM/l.", "setting": "rumen flora", "result": 0.7498}, {"measurement": "Ratio of Treated to Control, Molar % Propionate", "setting": "rumen flora; *P<0.01", "result": 1.4191}, {"measurement": "MIC", "setting": "Propionibacterium acnes", "result": "≤ 0.5", "unit": "µg/mL"}, {"measurement": "ATPase inhibition", "setting": "ATPase", "result": "shown to inhibit ATPase"}, {"measurement": "MIC", "setting": "Fusobacterium symbiosum", "result": 32, "unit": "µg/mL"}, {"measurement": "Zone of Inhibition", "setting": "[1]; 30 mcg/disc", "result": 15.0, "unit": "mm"}, {"measurement": "Zone of Inhibition", "setting": "[1]; 300 mcg/disc", "result": 15.2, "unit": "mm"}, {"measurement": "increase of cardiac contractility (percentage of maximal force elicited by norepinephrine)", "setting": "guinea pig left atria", "result": "28.0 ± 7.1", "unit": "%"}, {"measurement": "No. Died per No. in Group", "setting": "acute swine dysentery", "result": "0/4"}, {"measurement": "No. with Colon Lesions/No. in Group", "setting": "acute swine dysentery", "result": "2/4"}, {"measurement": "Diarrhea Index", "setting": "acute swine dysentery; total score per treatment for 25 days", "result": 22}, {"measurement": "MIC", "setting": "[2]", "result": 2, "unit": "µg/mL"}, {"measurement": "Average Lesion Score, Cecal", "setting": "E. tenella AND E. maxima; 40 ppm in feed", "result": 1.6}, {"measurement": "Average Lesion Score, Total Intestinal", "setting": "E. tenella AND E. maxima; 40 ppm in feed", "result": 4.9}, {"measurement": "Mortality", "setting": "E. tenella AND E. maxima; 40 ppm in feed", "result": 0}, {"measurement": "Average Lesion Score, Cecal", "setting": "E. tenella AND E. maxima; 60 ppm in feed", "result": 0.6}, {"measurement": "Average Lesion Score, Total Intestinal", "setting": "E. tenella AND E. maxima; 60 ppm in feed", "result": 5.9}, {"measurement": "Mortality", "setting": "E. tenella AND E. maxima; 60 ppm in feed", "result": 0}, {"measurement": "Average Lesion Score, Cecal", "setting": "E. tenella AND E. maxima; 80 ppm in feed", "result": 0.3}, {"measurement": "Average Lesion Score, Total Intestinal", "setting": "E. tenella AND E. maxima; 80 ppm in feed", "result": 3.0}, {"measurement": "Mortality", "setting": "E. tenella AND E. maxima; 80 ppm in feed", "result": 0}, {"measurement": "Average Lesion Score, Cecal", "setting": "E. tenella AND E. maxima; 100 ppm in feed", "result": 0}, {"measurement": "Average Lesion Score, Total Intestinal", "setting": "E. tenella AND E. maxima; 100 ppm in feed", "result": 1.6}, {"measurement": "Mortality", "setting": "E. tenella AND E. maxima; 100 ppm in feed", "result": 0}]}
